# Experimental data taken from PubChem BioAssay (NCI).
#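 In this assay, cells in 96-well plates receive the compound at five concentrations for 48 hours. Endpoints are linearly interpolated between the surrounding concentrations. TGI is the concentration that stops growth completely.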
# What was measured:
# Test in all cases: NCI anticancer screen, dose series, 48 h
# [1] = tested on: 786-0 renal
# [2] = tested on: A498 renal
# [3] = tested on: A549 NSCLC
# [4] = tested on: ACHN renal
# [5] = tested on: CAKI-1 renal
# [6] = tested on: CCRF-CEM leukemia
# [7] = tested on: COLO 205 colon
# [8] = tested on: DU-145 prostate
# [9] = tested on: EKVX NSCLC
# [10] = tested on: HCC-2998 colon
# [11] = tested on: HCT-116 colon
# [12] = tested on: HCT-15 colon
# [13] = tested on: HL-60(TB) leukemia
# [14] = tested on: HOP-62 NSCLC
# [15] = tested on: HOP-92 NSCLC
# [16] = tested on: HS 578T breast
# [17] = tested on: HT29 colon
# [18] = tested on: K-562 leukemia
# [19] = tested on: KM12 colon
# [20] = tested on: LOX IMVI melanoma
# [21] = tested on: M14 melanoma
# [22] = tested on: MALME-3M melanoma
# [23] = tested on: MCF7 breast
# [24] = tested on: MDA-MB-231 breast
# [25] = tested on: MDA-MB-435
# [26] = tested on: MDA-N
# [27] = tested on: MOLT-4 leukemia
# [28] = tested on: NCI-H226 lung
# [29] = tested on: NCI-H23 lung
# [30] = tested on: NCI-H460 lung
# [31] = tested on: NCI/ADR-RES ovarian
# [32] = tested on: OVCAR-3 ovarian
# [33] = tested on: OVCAR-4 ovarian
# [34] = tested on: OVCAR-5 ovarian
# [35] = tested on: PC-3 prostate
# [36] = tested on: RPMI-8226 leukemia
# [37] = tested on: RXF 393 renal
# [38] = tested on: SF-268 CNS
# [39] = tested on: SF-295 CNS
# [40] = tested on: SF-539 CNS
# [41] = tested on: SK-MEL-2 melanoma
# [42] = tested on: SK-MEL-28 melanoma
# [43] = tested on: SK-MEL-5 melanoma
# [44] = tested on: SK-OV-3 ovarian
# [45] = tested on: SN12C renal
# [46] = tested on: SNB-19 CNS
# [47] = tested on: SNB-75 CNS
# [48] = tested on: SR leukemia
# [49] = tested on: SW-620 colon
# [50] = tested on: T-47D breast
# [51] = tested on: TK-10 renal
# [52] = tested on: U251 CNS
# [53] = tested on: UACC-257 melanoma
# [54] = tested on: UACC-62 melanoma
# [55] = tested on: UO-31 renal
smiles,measurement,setting,value
O=C(C=P(c1ccccc1)(c1ccccc1)c1ccccc1)c1ccc(-c2cccc([N+](=O)[O-])c2)cc1,TGI,[1],20.8 µM
same,TGI,[2],9.11 µM
same,TGI,[3],12.7 µM
same,TGI,[4],7.87 µM
same,TGI,[5],9.38 µM
same,TGI,[6],7.25 µM
same,TGI,[7],3.31 µM
same,TGI,[8],35.1 µM
same,TGI,[9],11.7 µM
same,TGI,[10],4.75 µM
same,TGI,[11],6.24 µM
same,TGI,[12],12.7 µM
same,TGI,[13],5.08 µM
same,TGI,[14],27.6 µM
same,TGI,[15],6.92 µM
same,TGI,[16],22.4 µM
same,TGI,[17],3.13 µM
same,TGI,[18],7.98 µM
same,TGI,[19],20 µM
same,TGI,[20],4.15 µM
same,TGI,[21],4.64 µM
same,TGI,[22],9.31 µM
same,TGI,[23],10.6 µM
same,TGI,[24],8 µM
same,TGI,[25],5.4 µM
same,TGI,[26],9.09 µM
same,TGI,[27],5.55 µM
same,TGI,[28],19.9 µM
same,TGI,[29],21.2 µM
same,TGI,[30],4.27 µM
same,TGI,[31],25.1 µM
same,TGI,[32],9.69 µM
same,TGI,[33],9.52 µM
same,TGI,[34],14.9 µM
same,TGI,[35],18.6 µM
same,TGI,[36],3.98 µM
same,TGI,[37],9.34 µM
same,TGI,[38],> 100 µM
same,TGI,[39],> 100 µM
same,TGI,[40],15.3 µM
same,TGI,[41],3.78 µM
same,TGI,[42],18.2 µM
same,TGI,[43],5.91 µM
same,TGI,[44],18.6 µM
same,TGI,[45],12 µM
same,TGI,[46],> 100 µM
same,TGI,[47],6.86 µM
same,TGI,[48],8.09 µM
same,TGI,[49],14.5 µM
same,TGI,[50],27.1 µM
same,TGI,[51],55.9 µM
same,TGI,[52],13.2 µM
same,TGI,[53],15.8 µM
same,TGI,[54],15.9 µM
same,TGI,[55],4.8 µM
